{"source": "patent US6586368B1", "about": "“Condensed heterocylic compounds and herbicides containing them” (Sumitomo Chemical Company, Limited, priority 1998, dated 2003)", "type_in_all_cases": "in vivo", "key": {"[1]": {"tested_on": "velvetleaf (Abutilon theophrasti)", "test": "Test Example 2: foliage treatment of velvetleaf in pots, herbicidal activity", "settings": "emulsifiable concentrate sprayed over the foliage, dosage of 8000 g/ha, 1000 liters per hectare, plants 14 days after seeding, examined after 5 days in greenhouse", "description": "Cylindrical plastic pots of 10 cm in diameter and 10 cm in depth were filled with soil, seeded with velvetleaf (Abutilon theophrasti), and kept in a greenhouse for 14 days. After that, according to Formulation Example 2, compound 2-2001 or 3-2001 was formulated into an emulsifiable concentrate, which was diluted in a prescribed amount with water containing a spreading agent and then uniformly sprayed over the foliage of the plants with a sprayer at a ratio of 1000 liters per hectare. The pots were further kept in the greenhouse for 5 days and examined for herbicidal activity."}, "[2]": {"tested_on": "velvetleaf (Abutilon theophrasti)", "test": "Test Example 3: soil surface treatment, velvetleaf seeded in pots, herbicidal activity", "settings": "emulsifiable concentrate sprayed over the surface of the soil after seeding, dosage of 2000 g/ha, 1000 liters per hectare, examined after 9 days in greenhouse"}, "[3]": {"tested_on": "velvetleaf (Abutilon theophrasti)", "test": "Test Example 1: foliage treatment of velvetleaf in pots, herbicidal activity", "settings": "emulsifiable concentrate sprayed over the foliage, dosage of 2000 g/ha, 1000 liters per hectare, plants 14 days after seeding, examined after 8 days in greenhouse"}, "[4]": {"tested_on": "barnyardgrass (Echinochloa oryzicola)", "test": "Test Example 4: flooded paddy field treatment of barnyardgrass in pots, herbicidal activity", "settings": "emulsifiable concentrate applied on the water surface of flooded pots, dosage of 1000 g/ha, 50 liters per are, plants 12 days after seeding, examined after 9 days in greenhouse"}}, "data": [{"compound": "O=c1cc(C(F)(F)F)ncn1-n1ccc2ccccc21", "note": "[Compound 3-2001]", "values": [{"measurement": "herbicidal activity: kill of velvetleaf", "setting": "[1]", "value": "completely killed"}]}, {"compound": "O=C1C2=C(CCCC2)C(=O)N1n1ccc2ccccc21", "note": "[Compound 2-2001]", "values": [{"measurement": "herbicidal activity: kill of velvetleaf", "setting": "[1]", "value": "completely killed"}]}, {"compound": "Cn1c(C(F)(F)F)cc(=O)n(-c2coc3ccc(C(N)=O)cc23)c1=O", "note": "[Compound 1-293]", "values": [{"measurement": "herbicidal activity: germination of velvetleaf", "setting": "[2]", "value": "completely inhibited the germination"}, {"measurement": "herbicidal activity: growth of velvetleaf", "setting": "[3]", "value": "completely inhibited the growth"}, {"measurement": "herbicidal activity: growth of barnyardgrass", "setting": "[4]", "value": "completely inhibited the growth"}]}, {"compound": "Cn1c(C(F)(F)F)cc(=O)n(-c2coc3c(Cl)cc(Cl)cc23)c1=O", "note": "[Compound 1-2, 3-(5,7-Dichlorobenzo[b]furan-3-yl)-1-methyl-6-(trifluoromethyl)-1,2,3,4-tetrahydropyrimidine-2,4-dione]", "values": [{"measurement": "herbicidal activity: germination of velvetleaf", "setting": "[2]", "value": "completely inhibited the germination"}, {"measurement": "herbicidal activity: growth of velvetleaf", "setting": "[3]", "value": "completely inhibited the growth"}, {"measurement": "herbicidal activity: growth of barnyardgrass", "setting": "[4]", "value": "completely inhibited the growth"}]}, {"compound": "Cn1c(C(F)(F)F)cc(=O)n(-c2coc3cc([N+](=O)[O-])c(F)cc23)c1=O", "note": "[Compound 1-431]", "values": [{"measurement": "herbicidal activity: germination of velvetleaf", "setting": "[2]", "value": "completely inhibited the germination"}, {"measurement": "herbicidal activity: growth of velvetleaf", "setting": "[3]", "value": "completely inhibited the growth"}, {"measurement": "herbicidal activity: growth of barnyardgrass", "setting": "[4]", "value": "completely inhibited the growth"}]}, {"compound": "CCOC(=O)C(Cl)Cc1ccc2occ(-n3c(=O)cc(C(F)(F)F)n(C)c3=O)c2c1", "note": "(centres unmarked) [Compound 1-407]", "values": [{"measurement": "herbicidal activity: germination of velvetleaf", "setting": "[2]", "value": "completely inhibited the germination"}, {"measurement": "herbicidal activity: growth of velvetleaf", "setting": "[3]", "value": "completely inhibited the growth"}, {"measurement": "herbicidal activity: growth of barnyardgrass", "setting": "[4]", "value": "completely inhibited the growth"}]}, {"compound": "COc1cc2c(-n3c(=O)cc(C(F)(F)F)n(C)c3=O)coc2cc1[N+](=O)[O-]", "note": "[Compound 1-86, 3-(5-Methoxy-6-nitrobenzo[b]furan-3-yl)-1-methyl-6-(trifluoromethyl)-1,2,3,4-tetrahydropyrimidine-2,4-dione]", "values": [{"measurement": "herbicidal activity: germination of velvetleaf", "setting": "[2]", "value": "completely inhibited the germination"}, {"measurement": "herbicidal activity: growth of velvetleaf", "setting": "[3]", "value": "completely inhibited the growth"}, {"measurement": "herbicidal activity: growth of barnyardgrass", "setting": "[4]", "value": "completely inhibited the growth"}]}, {"compound": "CCOC(=O)C(C)Oc1cc2c(-n3c(=O)cc(C(F)(F)F)n(C)c3=O)coc2cc1[N+](=O)[O-]", "note": "(centres unmarked) [Compound 1-131]", "values": [{"measurement": "herbicidal activity: germination of velvetleaf", "setting": "[2]", "value": "completely inhibited the germination"}, {"measurement": "herbicidal activity: growth of velvetleaf", "setting": "[3]", "value": "completely inhibited the growth"}, {"measurement": "herbicidal activity: growth of barnyardgrass", "setting": "[4]", "value": "completely inhibited the growth"}]}, {"compound": "CN(C)c1ccc2occ(-n3c(=O)cc(C(F)(F)F)n(C)c3=O)c2c1", "note": "[Compound 1-9]", "values": [{"measurement": "herbicidal activity: germination of velvetleaf", "setting": "[2]", "value": "completely inhibited the germination"}, {"measurement": "herbicidal activity: growth of velvetleaf", "setting": "[3]", "value": "completely inhibited the growth"}, {"measurement": "herbicidal activity: growth of barnyardgrass", "setting": "[4]", "value": "completely inhibited the growth"}]}, {"compound": "COc1ccc2occ(-n3c(=O)cc(C(F)(F)F)n(C)c3=O)c2c1", "note": "[Compound 1-5, 3-(5-Methoxybenzo[b]furan-3-yl)-1-methyl-6-(trifluoromethyl)-1,2,3,4-tetrahydropyrimidine-2,4-dione]", "values": [{"measurement": "herbicidal activity: germination of velvetleaf", "setting": "[2]", "value": "completely inhibited the germination"}, {"measurement": "herbicidal activity: growth of velvetleaf", "setting": "[3]", "value": "completely inhibited the growth"}, {"measurement": "herbicidal activity: growth of barnyardgrass", "setting": "[4]", "value": "completely inhibited the growth"}]}, {"compound": "CCOC(=O)C(C)Nc1ccc2occ(-n3c(=O)cc(C(F)(F)F)n(C)c3=O)c2c1", "note": "(centres unmarked) [Compound 1-11]", "values": [{"measurement": "herbicidal activity: germination of velvetleaf", "setting": "[2]", "value": "completely inhibited the germination"}, {"measurement": "herbicidal activity: growth of velvetleaf", "setting": "[3]", "value": "completely inhibited the growth"}, {"measurement": "herbicidal activity: growth of barnyardgrass", "setting": "[4]", "value": "completely inhibited the growth"}]}]}
